From ChEMBL document CHEMBL1201862, “PubChem BioAssay data set” (2004) come the findings set out here.

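Briefly, cells in 96-well plates were exposed to five compound concentrations for 48 h, and endpoints were estimated by linear interpolation. Abbreviation: GI50, concentration required for 50% inhibition of growth.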 Calls of active or inactive are those of the source. Cut-off read from the data, not from the text of the source: active = GI50 up to about 1.1 µM and inactive = higher. Where only a bound is given, the exact number is not on record here.

Some test systems named below: NCI-H522; NCI/ADR-RES; OVCAR-4; SN12C; MOLT-4; LOX IMVI; SK-MEL-2; TK-10; SK-OV-3; SF-295; EKVX; IGROV-1; SF-268; KM12; SK-MEL-5; SW-620; ACHN; RXF 393; CAKI-1; A549.
Holding throughout (assay): inhibition of tumour cell growth, NCI panel, 48 h

Consider `CC(C)(C)OC(=O)NC(Cc1ccc(OCc2ccccc2)cc1)C(=O)NC(COCc1ccccc1)C(=O)Oc1c(Cl)c(Cl)c(Cl)c(Cl)c1Cl` (stereo not given), for which the GI50 in the assay on NCI-H522 was 22.2 µM (inactive); with NCI/ADR-RES it was 21.2 µM (inactive); in the assay on OVCAR-4, 26.5 µM (inactive); in the assay with SN12C, 23.3 µM (inactive); in the assay on MOLT-4 it was 37.5 µM (inactive); with LOX IMVI, 23.6 µM (inactive). Moreover, the GI50 in the assay with SK-MEL-2 was 19 µM (inactive); in the assay on TK-10 it was 29.8 µM (inactive); in the assay on SK-OV-3, 17.1 µM (inactive); with SF-295 it was 19.2 µM (inactive); with EKVX, 23.1 µM (inactive); in the assay with IGROV-1, 15.8 µM (inactive). Moreover, the GI50 in the assay with SF-268 was 24.4 µM (inactive); in the assay with KM12, 19.3 µM (inactive); in the assay on SK-MEL-5, 17.3 µM (inactive); with SW-620, 25.6 µM (inactive); in the assay on ACHN, 24.4 µM (inactive); with RXF 393, 24.8 µM (inactive). Further, the figures for the GI50 in the assay on CAKI-1 and in the assay on A549 were 19.9 µM (inactive) and 27.1 µM (inactive), respectively.

Regarding `CNc1ccc2c(c1)[C@@]1(C)c3ccccc3[C@@H](C2)N1C`, the GI50 in the assay with NCI-H522 is 15.7 µM (inactive); in the assay on NCI/ADR-RES, 27.4 µM (inactive); in the assay with OVCAR-4, 30.7 µM (inactive); with SN12C it was 17.4 µM (inactive); in the assay with MOLT-4, 17.5 µM (inactive); in the assay on LOX IMVI it was 19.5 µM (inactive). In addition, the GI50 in the assay with SK-MEL-2 is 21.6 µM (inactive); in the assay with TK-10, 28.8 µM (inactive); in the assay with SK-OV-3, 43.8 µM (inactive); in the assay with SF-295, 29.6 µM (inactive); with EKVX, 32.7 µM (inactive); with IGROV-1, 48.9 µM (inactive). For the same compound, the GI50 in the assay with SF-268 is 44.4 µM (inactive); with KM12 it was 22.4 µM (inactive); with SK-MEL-5, 17.7 µM (inactive); with SW-620 it was 33.7 µM (inactive); with ACHN, 30.6 µM (inactive); in the assay on RXF 393 it was 20.3 µM (inactive). The GI50 is 36.5 µM (inactive) in the assay on CAKI-1 and 30.2 µM (inactive) with A549.

In the case of `O=c1[nH]nc(-c2ccccc2)n1/N=C/c1ccccc1Cl`, the GI50 is 18 µM (inactive) with NCI-H522; 19.8 µM (inactive) in the assay with NCI/ADR-RES; 15.2 µM (inactive) in the assay with OVCAR-4; 48.8 µM (inactive) in the assay with SN12C; 22.4 µM (inactive) in the assay on MOLT-4; 25.1 µM (inactive) in the assay on LOX IMVI. The GI50 is 18 µM (inactive) in the assay with SK-MEL-2; 75.9 µM (inactive) in the assay with TK-10; 48.8 µM (inactive) with SK-OV-3; 34 µM (inactive) in the assay with SF-295; 45.9 µM (inactive) in the assay with EKVX; 21.8 µM (inactive) in the assay with IGROV-1. Moreover, the GI50 in the assay with SF-268 was 53.6 µM (inactive); with KM12 it was 12 µM (inactive); in the assay with SK-MEL-5 it was 18.6 µM (inactive); in the assay with SW-620 it was 50.7 µM (inactive); in the assay with ACHN it was 52.6 µM (inactive); in the assay with RXF 393, 25.4 µM (inactive). For the same compound, the GI50 with CAKI-1 is 36.6 µM (inactive); in the assay with A549 it was 34.1 µM (inactive).

In the case of `O=P1(O)c2ccccc2CS(=O)(=O)Cc2ccccc21`, the GI50 in the assay with NCI-H522, in the assay on NCI/ADR-RES, in the assay with OVCAR-4, in the assay on SN12C, in the assay on MOLT-4 and in the assay on LOX IMVI was > 100 µM (inactive) in each case. In addition, the GI50 with SK-MEL-2, in the assay with TK-10, with SK-OV-3, in the assay on SF-295, in the assay with EKVX and in the assay on IGROV-1 was > 100 µM (inactive) throughout. In addition, the GI50 in the assay with SF-268, with KM12, with SK-MEL-5, in the assay with SW-620, with ACHN and in the assay on RXF 393 was > 100 µM (inactive) in each case. Also, the GI50 in the assay with CAKI-1 and in the assay with A549 was > 100 µM (inactive) throughout.

On to `NC(=O)c1ccccc1NC(=O)C(=O)C(c1cnc2ccc([N+](=O)[O-])cc2n1)[N+](=O)[O-]` (stereo not given), for which the GI50 with NCI-H522 is 33.3 µM (inactive); in the assay on NCI/ADR-RES it was > 100 µM (inactive); with OVCAR-4 it was 53.6 µM (inactive); in the assay on SN12C it was > 100 µM (inactive); in the assay on MOLT-4 it was 46.3 µM (inactive); in the assay on LOX IMVI it was 40.5 µM (inactive). In addition, the GI50 with SK-MEL-2, in the assay on TK-10, with SK-OV-3, in the assay on SF-295, in the assay with EKVX and in the assay on IGROV-1 was > 100 µM (inactive) each time. Further, the GI50 is > 100 µM (inactive) in the assay with SF-268; 54.6 µM (inactive) in the assay with KM12; 77.8 µM (inactive) in the assay on SK-MEL-5; > 100 µM (inactive) in the assay on SW-620; 23.5 µM (inactive) with ACHN; > 100 µM (inactive) in the assay on RXF 393. Further, the GI50 with CAKI-1 and in the assay on A549 was > 100 µM (inactive) each time.

On to `O=C(N/N=C1\C(=O)Nc2ccc(Br)cc21)/C(O)=C/C(=O)c1ccc(Cl)cc1`, for which the GI50 with NCI-H522 was 23.1 µM (inactive); in the assay on NCI/ADR-RES, > 100 µM (inactive); in the assay on OVCAR-4 it was > 100 µM (inactive); in the assay on SN12C, 67.8 µM (inactive); in the assay on MOLT-4, 0.0705 µM (active); in the assay with LOX IMVI, 34 µM (inactive). Further, the GI50 in the assay on SK-MEL-2 is 18.7 µM (inactive); in the assay with TK-10, 50.4 µM (inactive); with SK-OV-3, 64.1 µM (inactive); in the assay on SF-295, 54 µM (inactive); in the assay with EKVX, 45.8 µM (inactive); in the assay with IGROV-1 it was 75.9 µM (inactive). Besides, the GI50 in the assay with SF-268 was 36.4 µM (inactive); in the assay with KM12, > 100 µM (inactive); in the assay on SK-MEL-5 it was 57.5 µM (inactive); with SW-620 it was 40.8 µM (inactive); in the assay with ACHN it was > 100 µM (inactive); in the assay on RXF 393, 31.3 µM (inactive). The GI50 with CAKI-1 and with A549 was > 100 µM (inactive) each time.

With `CC(C)Oc1cccc(N2C(n3ccnc3)=Nc3ccncc3S2(=O)=O)c1`, the GI50 in the assay on NCI-H522 was 9.44 µM (inactive); in the assay on NCI/ADR-RES it was 21 µM (inactive); with OVCAR-4, 14 µM (inactive); in the assay on SN12C, 15.5 µM (inactive); in the assay with MOLT-4, 4.3 µM (inactive); in the assay with LOX IMVI, 16.2 µM (inactive). Also, the GI50 was 13.1 µM (inactive) in the assay with SK-MEL-2; 12.1 µM (inactive) in the assay with TK-10; 17.5 µM (inactive) with SK-OV-3; 34.9 µM (inactive) with SF-295; 16.2 µM (inactive) with EKVX; 14.6 µM (inactive) with IGROV-1. Besides, the GI50 was 16.3 µM (inactive) with SF-268; 23.2 µM (inactive) in the assay with KM12; 13.2 µM (inactive) in the assay on SK-MEL-5; 12.6 µM (inactive) in the assay on SW-620; 10 µM (inactive) in the assay on ACHN; 14.7 µM (inactive) with RXF 393. For the same compound, the GI50 was 13.7 µM (inactive) in the assay with CAKI-1 and 20.4 µM (inactive) in the assay on A549.

Turning to `CCCCCCCCCCCC(=O)OCC(C[As](=O)(O)O)OC(=O)CCCCCCCCCCC` (stereo not given), the GI50 was 2.13 µM (inactive) with NCI-H522; 21.3 µM (inactive) in the assay with NCI/ADR-RES; 15.1 µM (inactive) in the assay on OVCAR-4; 2.94 µM (inactive) in the assay with SN12C; 3.96 µM (inactive) with MOLT-4; 4.76 µM (inactive) with LOX IMVI. Besides, the GI50 was 3.92 µM (inactive) in the assay on SK-MEL-2; 14.3 µM (inactive) in the assay on TK-10; 13.8 µM (inactive) in the assay with SK-OV-3; 10.4 µM (inactive) in the assay with SF-295; 7.74 µM (inactive) in the assay with EKVX; 1.74 µM (inactive) with IGROV-1. Besides, the GI50 is 5.09 µM (inactive) in the assay with SF-268; 7.1 µM (inactive) in the assay on KM12; 1.75 µM (inactive) with SK-MEL-5; 12.1 µM (inactive) with SW-620; 2.24 µM (inactive) in the assay on ACHN; 2.43 µM (inactive) with RXF 393. For the same compound, the GI50 in the assay on CAKI-1 was 9.27 µM (inactive); in the assay with A549, 8.2 µM (inactive).

`CCOC(=O)c1cn2c(n1)sc1cc([N+](=O)[O-])ccc12`: the GI50 with NCI-H522, with NCI/ADR-RES, in the assay on OVCAR-4, in the assay on SN12C, in the assay on MOLT-4 and in the assay with LOX IMVI was > 100 µM (inactive) in each case. Besides, the GI50 was > 100 µM (inactive) with SK-MEL-2; > 100 µM (inactive) with TK-10; > 100 µM (inactive) with SK-OV-3; 37.3 µM (inactive) with SF-295; > 100 µM (inactive) in the assay on EKVX; > 100 µM (inactive) with IGROV-1. The GI50 in the assay on SF-268 was > 100 µM (inactive); in the assay with KM12 it was > 100 µM (inactive); in the assay with SK-MEL-5, > 100 µM (inactive); with SW-620, > 100 µM (inactive); with ACHN, 92.3 µM (inactive); with RXF 393, > 100 µM (inactive). For the same compound, the GI50 in the assay with CAKI-1 and in the assay with A549 was > 100 µM (inactive) in each case.

`CC1(c2nc3ccccc3[nH]2)CCC(C#N)C(C)(C)O1` (stereo not given): the GI50 in the assay with NCI-H522, with NCI/ADR-RES, with OVCAR-4, in the assay with SN12C, in the assay on MOLT-4 and in the assay on LOX IMVI was > 100 µM (inactive) each time. Moreover, the GI50 with SK-MEL-2, in the assay with TK-10, in the assay on SK-OV-3, in the assay on SF-295, in the assay with EKVX and in the assay on IGROV-1 was > 100 µM (inactive) each time. Also, the GI50 in the assay with SF-268 is > 100 µM (inactive); in the assay with KM12 it was 7.74 µM (inactive); in the assay on SK-MEL-5, > 100 µM (inactive); with SW-620, > 100 µM (inactive); with ACHN it was > 100 µM (inactive); with RXF 393, > 100 µM (inactive). Besides, the GI50 in the assay on CAKI-1 and in the assay on A549 was > 100 µM (inactive) each time.
